Test results taken from patent publication US20110009332A1, “Therapeutic Treatment Of Wounds” (SOUTHWEST RESEARCH INSTITUTE, priority 2009, published 2011).

Target: 20S proteasomes (Homo sapiens, UniProt P28074)
Assay: Inhibition of 20S proteasome enzyme activity
Format: biochemical
Conditions: 0 nM to 10,000 nM, FIGS. 7-9
Protocol: The IC50 may be understood as the amount of a particular substance/molecule needed to inhibit a given biological process in vitro by 50% and may be an indicator of the potency of a compound. The activity of the proteasome may be quantified by measuring the amount of fluorescence produced by cleavage of a fluorogenic substrate, such as LLVY-AMC, which when released by proteasomal cleavage, may emit fluorescent light.
The enzyme activity of 20S proteasomes was measured upon increasing addition of the proteasome inhibitors PS-1, curcumin and genestein in concentrations ranging from 0 nM to 10,000 nM. In particular, FIG. 7 illustrates the inhibition of 20S proteasomes upon the addition of PS-1. […] FIG. 8 illustrates the inhibition of the 20S proteasomes upon the addition of curcumin. […] FIG. 9 illustrates the inhibition of the 20S proteasomes upon the addition of genestein.

O=c1c(-c2ccc(O)cc2)coc2cc(O)cc(O)c12 [genestein]
enzyme activity of 20S proteasomes with increasing inhibitor concentration (in words): relatively smaller decrease in enzyme activity
